Measurements reported in patent publication US11692164B2, “Antibiotic-free compositions for the prevention or control of coccidiosis” (Huvepharma Inc., priority 2017, dated 2023).
Where two headings read alike, the source gives them in different places.

Tests used:
[1] = test system: B. subtilis and P. chrysogenum; assay: Minimal inhibitory concentration of disinfectants in E. maxima oocysts spiked with B. subtilis and P. chrysogenum; assay type: cell-based, Bacillus subtilis and Penicillium chrysogenum
Procedure: (§1) In this example, additional disinfectant compounds were tested for their ability to inhibit microbial growth in Eimeria oocyst samples as compared to formalin. E. maxima oocysts were spiked with B. subtilis and P. chrysogenum, and the minimal inhibitory concentrations of several disinfectants were determined. The disinfectants were then added to E. maxima oocysts and the oocysts were stored at 2-7° C. for 6 months. The oocysts were assayed for viability and the decrease in viability due to the disinfectant was calculated by comparison to the same lot of oocysts stored in 0.5×PBS only. Exemplary results are summarized below in Table 5.

E. maxima oocysts [2] = assay: Effect of disinfectants at minimal inhibitory concentration on E. maxima oocyst viability; assay type: cell-based, Eimeria maxima
Procedure: as §1

E. acervulina oocysts = conditions: storage at 2-7° C.
Procedure: (§2) The effect of formalin on oocyst viability was investigated using oocyst lots of each Eimeria species (E. acervulina, E. maxima and E. tenella) and on vaccine. Viability was determined initially prior to the addition of formalin, and then after 1 year of storage at 2-7° C.

E. maxima oocysts [3] = conditions: storage at 2-7° C.
Procedure: as §2

E. tenella oocysts = conditions: storage at 2-7° C.
Procedure: as §2

[4] = test system: Vaccine Serial (E. acervulina, E. maxima and E. tenella oocysts); conditions: storage at 2-7° C.
Eimeria maxima oocysts = conditions: 0.675% formalin; stored 2 weeks at 2-7° C.; compared to same lot of oocysts stored with 0% formalin
[5] = test system: Eimeria acervulina oocysts; conditions: 0.1% formalin; stored 4 months at 2-7° C.; compared to same lot of oocysts stored with 0% formalin

| Structure (SMILES) | Minimal Inhibitory Concentration [1] [%] | Decrease in Viability (E. maxima oocysts [2]; disinfectant at minimal inhibitory concentration, 6 months of storage at 2-7 C., compared to same lot stored with 0% disinfectant (0.5×PBS only)) [%] | % Viable Oocysts after Storage for 12 Months, E. acervulina 12 mo (E. acervulina oocysts; formalin concentration 0.010) [%] | % Viable Oocysts after Storage for 12 Months, E. acervulina 12 mo (E. acervulina oocysts; formalin concentration 0.025) [%] | % Viable Oocysts after Storage for 12 Months, E. maxima 12 mo (E. maxima oocysts [3]; formalin concentration 0.010) [%] | % Viable Oocysts after Storage for 12 Months, E. maxima 12 mo (E. maxima oocysts [3]; formalin concentration 0.025) [%] | % Viable Oocysts after Storage for 12 Months, E. tenella 12 mo (E. tenella oocysts; formalin concentration 0.010) [%] | % Viable Oocysts after Storage for 12 Months, E. tenella 12 mo (E. tenella oocysts; formalin concentration 0.025) [%] | % Viable Oocysts after Storage for 12 Months, Vaccine Serial 12 mo ([4]; formalin concentration 0.0028) [%] | % Viable Oocysts after Storage for 12 Months, Vaccine Serial 12 mo ([4]; formalin concentration 0.0071) [%] | Decrease in Viability (Eimeria maxima oocysts) [%] | Decrease in Viability [5] [%] | Decrease in Viability (E. maxima oocysts [2]) [%] |
| --- | --- | --- | --- | --- | --- | --- | --- | --- | --- | --- | --- | --- | --- |
| CC(C)=CCCC(C)=CC=O [Citral] | 0.0125 | 24 |  |  |  |  |  |  |  |  |  |  |  |
| C=O [Formalin, formaldehyde] |  |  | 59 | 27 | 47 | 41 | 95 | 86 | 83 | 84 | 49 | 37 |  |
| Cc1ccc(C(C)C)c(O)c1 [Thymol] | 0.0063 |  |  |  |  |  |  |  |  |  |  |  | 15 |
